Reference: the supplement of paper PMC10307832

How the values were obtained:
Assay in all cases: relative viability (nuclei count vs DMSO), 5 days (fraction); higher = more cells survive
[1] = compound: O=C(O)c1ccc2c(c1)nc(Nc1cccc(Cl)c1)c1ccncc12 [Silmitasertib] + C[C@]1(O)C[C@@H](c2nc(-c3ccc4ccc(-c5ccccc5)nc4c3)c3c(N)nccn32)C1 [Linsitinib] (partner 1 µM)
Summary of the method: (§1)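 Medians of duplicate plates are given as relative viability. That measure is the nuclei count in treated wells divided by the count in vehicle wells. Counts were taken on 4× images of lung cancer cell lines in 1536-well plates, 5 days after pin-tool dosing the day after seeding with one drug alone or a fixed anchor-drug dose plus five library-drug doses (not always all listed) in √10 steps.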

[2] = compound: O=C(O)c1ccc2c(c1)nc(Nc1cccc(Cl)c1)c1ccncc12 [Silmitasertib] + C[C@@H](Oc1cc(-c2cnn(C3CCNCC3)c2)cnc1N)c1c(Cl)ccc(F)c1Cl [Crizotinib] (partner 1 µM)
Summary of the method: as §1

[3] = compound: O=C(O)c1ccc2c(c1)nc(Nc1cccc(Cl)c1)c1ccncc12 [Silmitasertib] + COc1cc2c(Oc3ccc(NC(=O)C4(C(=O)Nc5ccc(F)cc5)CC4)cc3F)ccnc2cc1OCCCN1CCOCC1 [Foretinib] (partner 0.25 µM)
Summary of the method: as §1

[4] = compound: O=C(O)c1ccc2c(c1)nc(Nc1cccc(Cl)c1)c1ccncc12 [Silmitasertib] + Cc1nc(NC(=O)N2CCC[C@H]2C(N)=O)sc1-c1ccnc(C(C)(C)C(F)(F)F)c1 [Alpelisib] (partner 2 µM)
Summary of the method: as §1

[5] = compound: O=C(O)c1ccc2c(c1)nc(Nc1cccc(Cl)c1)c1ccncc12 [Silmitasertib] + CS(=O)(=O)N1CCN(Cc2cc3nc(-c4cccc5[nH]ncc45)nc(N4CCOCC4)c3s2)CC1 [Pictilisib] (partner 1 µM)
Summary of the method: as §1

[6] = compound: O=C(O)c1ccc2c(c1)nc(Nc1cccc(Cl)c1)c1ccncc12 [Silmitasertib] + CC(C)C[C@H](NC(=O)[C@H](Cc1ccccc1)NC(=O)c1cnccn1)B(O)O [Bortezomib] (partner 0.002 µM)
Summary of the method: as §1

[7] = compound: O=C(O)c1ccc2c(c1)nc(Nc1cccc(Cl)c1)c1ccncc12 [Silmitasertib] + CC1(C)CCC(c2ccc(Cl)cc2)=C(CN2CCN(c3ccc(C(=O)NS(=O)(=O)c4ccc(N[C@H](CCN5CCOCC5)CSc5ccccc5)c(S(=O)(=O)C(F)(F)F)c4)cc3)CC2)C1 [Navitoclax] (partner 0.5 µM)
Summary of the method: as §1

[8] = compound: O=C(O)c1ccc2c(c1)nc(Nc1cccc(Cl)c1)c1ccncc12 [Silmitasertib] + NC(=O)Nc1cc(-c2cccc(F)c2)sc1C(=O)N[C@H]1CCCNC1 [AZD7762] (partner 0.2 µM)
Summary of the method: as §1

[9] = compound: O=C(O)c1ccc2c(c1)nc(Nc1cccc(Cl)c1)c1ccncc12 [Silmitasertib] + CS(=O)(=O)CCNCc1ccc(-c2ccc3ncnc(Nc4ccc(OCc5cccc(F)c5)c(Cl)c4)c3c2)o1 [Lapatinib] (partner 2 µM)
Summary of the method: as §1

[10] = compound: O=C(O)c1ccc2c(c1)nc(Nc1cccc(Cl)c1)c1ccncc12 [Silmitasertib] + O=C(c1cc(Cc2n[nH]c(=O)c3ccccc23)ccc1F)N1CCN(C(=O)C2CC2)CC1 [Olaparib] (partner 8 µM)
Summary of the method: as §1

[11] = compound: O=C(O)c1ccc2c(c1)nc(Nc1cccc(Cl)c1)c1ccncc12 [Silmitasertib]
Summary of the method: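 A plate was accepted only when its control CV was below 25% and the cells had doubled at least once. Viability is defined from nuclear counts as treated wells divided by vehicle wells, with the median taken across plates. That median covers lung cancer cell lines grown in 1536-well plates, dosed by pinning at five √10-spaced library-drug concentrations, and counted in MetaXpress from 4× Hoechst images after 5 days.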

[12] = compound: O=C(O)c1ccc2c(c1)nc(Nc1cccc(Cl)c1)c1ccncc12 [Silmitasertib] + Cc1nc(Nc2ncc(C(=O)Nc3c(C)cccc3Cl)s2)cc(N2CCN(CCO)CC2)n1 [Dasatinib] (partner 0.075 µM)
Summary of the method: as §1

[13] = compound: O=C(O)c1ccc2c(c1)nc(Nc1cccc(Cl)c1)c1ccncc12 [Silmitasertib] + Nc1nc2[nH]cc(CCc3ccc(C(=O)N[C@@H](CCC(=O)O)C(=O)O)cc3)c2c(=O)[nH]1 [Pemetrexed] (partner 0.2 µM)
Summary of the method: as §1

[14] = compound: O=C(O)c1ccc2c(c1)nc(Nc1cccc(Cl)c1)c1ccncc12 [Silmitasertib] + CC(=O)Nc1cccc(-n2c(=O)n(C3CC3)c(=O)c3c(Nc4ccc(I)cc4F)n(C)c(=O)c(C)c32)c1 [Trametinib] (partner 0.02 µM)
Summary of the method: as §1

[15] = compound: O=C(O)c1ccc2c(c1)nc(Nc1cccc(Cl)c1)c1ccncc12 [Silmitasertib] + O=C(CCCCCCC(=O)Nc1ccccc1)NO [Vorinostat] (partner 1 µM)
Summary of the method: as §1

[16] = compound: O=C(O)c1ccc2c(c1)nc(Nc1cccc(Cl)c1)c1ccncc12 [Silmitasertib] + CCNC(=O)c1noc(-c2cc(C(C)C)c(O)cc2O)c1-c1ccc(CN2CCOCC2)cc1 [Luminespib] (partner 0.01 µM)
Summary of the method: as §1

[17] = compound: O=C(O)c1ccc2c(c1)nc(Nc1cccc(Cl)c1)c1ccncc12 [Silmitasertib] + Cc1cc(Nc2cc(N3CCN(C)CC3)nc(Sc3ccc(NC(=O)C4CC4)cc3)n2)n[nH]1 [Tozasertib] (partner 0.1 µM)
Summary of the method: as §1

[18] = compound: O=C(O)c1ccc2c(c1)nc(Nc1cccc(Cl)c1)c1ccncc12 [Silmitasertib] + Nc1ncn([C@H]2C[C@H](O)[C@@H](CO)O2)c(=O)n1 [Decitabine] (partner 2 µM)
Summary of the method: as §1

[19] = compound: O=C(O)c1ccc2c(c1)nc(Nc1cccc(Cl)c1)c1ccncc12 [Silmitasertib] + COc1cccc2cc(-c3nc([C@H]4CC[C@H](C(=O)O)CC4)n4ncnc(N)c34)[nH]c12 [OSI-027] (partner 0.5 µM)
Summary of the method: as §1

[20] = compound: O=C(O)c1ccc2c(c1)nc(Nc1cccc(Cl)c1)c1ccncc12 [Silmitasertib] + N=C(N)NC(=N)NCCc1ccccc1 [Phenformin] (partner 250 µM)
Summary of the method: as §1

[21] = compound: O=C(O)c1ccc2c(c1)nc(Nc1cccc(Cl)c1)c1ccncc12 [Silmitasertib] + CC(=O)c1c(C)c2cnc(Nc3ccc(N4CCNCC4)cn3)nc2n(C2CCCC2)c1=O [Palbociclib] (partner 0.5 µM)
Summary of the method: as §1

NCI-H1703
relative viability ([1]; first compound 0.04 µM): 1.04
relative viability ([1]; first compound 0.4 µM): 0.654
relative viability ([1]; first compound 1.265 µM): 1.23
relative viability ([1]; first compound 4 µM): 0.419
relative viability ([2]; first compound 0.04 µM): 0.954
relative viability ([2]; first compound 0.4 µM): 0.596
relative viability ([2]; first compound 1.265 µM): 0.787
relative viability ([2]; first compound 4 µM): 0.392
relative viability ([3]; first compound 0.04 µM): 0.348
relative viability ([3]; first compound 0.4 µM): 0.375
relative viability ([3]; first compound 1.265 µM): 0.359
relative viability ([3]; first compound 4 µM): 0.415
relative viability ([4]; first compound 0.04 µM): 0.334
relative viability ([4]; first compound 0.4 µM): 0.312
relative viability ([4]; first compound 1.265 µM): 0.392
relative viability ([4]; first compound 4 µM): 0.452
relative viability ([5]; first compound 0.04 µM): 0.25
relative viability ([5]; first compound 0.4 µM): 0.291
relative viability ([5]; first compound 1.265 µM): 0.228
relative viability ([5]; first compound 4 µM): 0.252
relative viability ([6]; first compound 0.04 µM): 0.352
relative viability ([6]; first compound 0.4 µM): 0.278
relative viability ([6]; first compound 1.265 µM): 0.294
relative viability ([6]; first compound 4 µM): 0.193
relative viability ([7]; first compound 0.04 µM): 1.44
relative viability ([7]; first compound 0.4 µM): 1.01
relative viability ([7]; first compound 1.265 µM): 1.15
relative viability ([7]; first compound 4 µM): 0.807
relative viability ([8]; first compound 0.04 µM): 0.136
relative viability ([8]; first compound 1.265 µM): 0.153
relative viability ([8]; first compound 4 µM): 0.146
relative viability ([9]; first compound 0.04 µM): 1.27
relative viability ([9]; first compound 0.4 µM): 0.868
relative viability ([9]; first compound 1.265 µM): 1.01
relative viability ([9]; first compound 4 µM): 0.892
relative viability ([10]; first compound 0.04 µM): 0.513
relative viability ([10]; first compound 0.4 µM): 0.368
relative viability ([10]; first compound 1.265 µM): 0.541
relative viability ([10]; first compound 4 µM): 0.573
relative viability ([11]; 0.04 µM): 1.13
relative viability ([11]; 0.4 µM): 0.883
relative viability ([11]; 1.265 µM): 1.1
relative viability ([11]; 4 µM): 1.11

NCI-H2342
relative viability ([12]; first compound 0.04 µM): 0.33
relative viability ([12]; first compound 0.4 µM): 0.295
relative viability ([12]; first compound 1.265 µM): 0.271
relative viability ([12]; first compound 4 µM): 0.298
relative viability ([13]; first compound 0.04 µM): 0.77
relative viability ([13]; first compound 1.265 µM): 0.72
relative viability ([13]; first compound 4 µM): 0.681
relative viability ([14]; first compound 0.04 µM): 0.909
relative viability ([14]; first compound 1.265 µM): 0.781
relative viability ([14]; first compound 4 µM): 0.811
relative viability ([3]; first compound 0.04 µM): 1.19
relative viability ([3]; first compound 0.4 µM): 0.981
relative viability ([3]; first compound 1.265 µM): 0.889
relative viability ([3]; first compound 4 µM): 1.14
relative viability ([15]; first compound 0.04 µM): 0.782
relative viability ([15]; first compound 1.265 µM): 0.746
relative viability ([15]; first compound 4 µM): 0.727
relative viability ([16]; first compound 0.04 µM): 0.708
relative viability ([16]; first compound 0.4 µM): 0.729
relative viability ([16]; first compound 1.265 µM): 0.715
relative viability ([16]; first compound 4 µM): 0.778
relative viability ([8]; first compound 0.04 µM): 0.471
relative viability ([8]; first compound 1.265 µM): 0.387
relative viability ([8]; first compound 4 µM): 0.401
relative viability ([17]; first compound 0.04 µM): 0.479
relative viability ([17]; first compound 0.4 µM): 0.479
relative viability ([17]; first compound 1.265 µM): 0.374
relative viability ([17]; first compound 4 µM): 0.445
relative viability ([18]; first compound 0.04 µM): 0.791
relative viability ([18]; first compound 1.265 µM): 0.79
relative viability ([18]; first compound 4 µM): 0.743
relative viability ([19]; first compound 0.04 µM): 0.762
relative viability ([19]; first compound 0.4 µM): 0.606
relative viability ([19]; first compound 1.265 µM): 0.504
relative viability ([19]; first compound 4 µM): 0.539
relative viability ([20]; first compound 0.04 µM): 0.614
relative viability ([20]; first compound 0.4 µM): 0.713
relative viability ([20]; first compound 1.265 µM): 0.465
relative viability ([20]; first compound 4 µM): 0.493
relative viability ([21]; first compound 0.04 µM): 0.522
relative viability ([21]; first compound 1.265 µM): 0.494
relative viability ([21]; first compound 4 µM): 0.495
relative viability ([10]; first compound 0.04 µM): 0.422
relative viability ([10]; first compound 1.265 µM): 0.434
relative viability ([10]; first compound 4 µM): 0.426
relative viability ([11]; 0.04 µM): 1.1
relative viability ([11]; 0.4 µM): 0.839
relative viability ([11]; 1.265 µM): 0.998
relative viability ([11]; 4 µM): 0.839
